Laboratory results reported in US11963995B2, “Methods comprising desmopressin” (Ferring B.V., priority 2008, dated 2024).

Tested on: adult patients with nocturia
Test: Duration of initial period of undisturbed sleep, change from baseline to Day 28 (Part I)
Assay type: in vivo, human
Conditions: for Change from baseline to final visit (Day 28) in duration of initial period of undisturbed sleep, mean / Change from baseline to final visit (Day 28) in duration of initial period of undisturbed sleep, median: ITT, Part I; for median increase in initial period of sleep: baseline to Day 28
Method: As used herein, the term “first sleep period” refers to the time elapsed from bedtime to either first void or morning arising.
All treatments were administered orally once per night approximately 1 hour prior to bedtime; subjects were instructed to limit their fluid intake prior to drug self-administration. […] Randomization was to be stratified by age (<65, ≥65 years) and by the absence/presence of nocturnal polyuria, defined as a ratio of nighttime urine volume/24-hour urine volume 33%. To achieve the desired number of subjects within each stratum, enrollment of subjects in a particular stratum (age and/or presence/absence of nocturnal polyuria) could be halted. If this was necessary, all investigative sites were to be informed in writing at least 1 week in advance to stop screening in a population of subjects.
The secondary efficacy endpoints were: (1) durability of effect achieved in Part I; (2) change in initial period of undisturbed sleep, defined as the elapsed time in minutes from going to bed with the intention of sleeping to the time of awakening for the first nocturnal void; and (3) change in duration of total sleep time. Additional secondary endpoints were collected, e.g., change in nocturia-specific quality of life as assessed by scores on the International Consultation on Incontinence Modular Questionnaire—Noctuira and the Noctuira Quality of Life Questionnaire, change in quality of sleep as assessed by the global score of the Pittsburgh Sleep Quality Index, and change in overall quality of life as assessed by the short form—12v2. A description of the additional secondary efficacy endpoints and their accompanying data are not provided herein.
Missing values concerning number of nocturnal voids at Day 8, Day 15, Day 22, and Day 28 in Part I were imputed using last observation carried forward (LOCF). Missing values concerning sleep disturbance and urine volume (for average 24-hour urine volume and average nocturnal urine volume) were not imputed.

[1] = 10 ug, all males with monitoring
[2] = 10 ug, females over 50 years of age
[3] = 10 ug, females over 65 years of age
[4] = 25 ug, all males with monitoring
[5] = 25 ug, females over 50 years of age
[6] = 25 ug, females over 65 years of age
[7] = 50 ug, all males with monitoring
[8] = 50 ug, females over 50 years of age
[9] = 50 ug, females over 65 years of age
[10] = 100 ug, all males with monitoring
[11] = 100 ug, females over 50 years of age
[12] = 100 ug, females over 65 years of age

NC(=O)CC[C@@H]1NC(=O)[C@H](Cc2ccccc2)NC(=O)[C@H](Cc2ccc(O)cc2)NC(=O)CCSSC[C@@H](C(=O)N2CCC[C@H]2C(=O)N[C@H](CCCN=C(N)N)C(=O)NCC(N)=O)NC(=O)[C@H](CC(N)=O)NC1=O [desmopressin]
Change from baseline to final visit (Day 28) in duration of initial period of undisturbed sleep, mean (10 ug, all females): 54 min
Change from baseline to final visit (Day 28) in duration of initial period of undisturbed sleep, median (10 ug, all females): 46 min
Change from baseline to final visit (Day 28) in duration of initial period of undisturbed sleep, mean (10 ug, all groups): 51 min
Change from baseline to final visit (Day 28) in duration of initial period of undisturbed sleep, median (10 ug, all groups): 51 min
Change from baseline to final visit (Day 28) in duration of initial period of undisturbed sleep, mean [1]: 54 min
Change from baseline to final visit (Day 28) in duration of initial period of undisturbed sleep, median [1]: 59 min
Change from baseline to final visit (Day 28) in duration of initial period of undisturbed sleep, mean (10 ug, all males): 48 min
Change from baseline to final visit (Day 28) in duration of initial period of undisturbed sleep, median (10 ug, all males): 56 min
Change from baseline to final visit (Day 28) in duration of initial period of undisturbed sleep, mean [2]: 33 min
Change from baseline to final visit (Day 28) in duration of initial period of undisturbed sleep, median [2]: 27 min
Change from baseline to final visit (Day 28) in duration of initial period of undisturbed sleep, mean [3]: 18 min
Change from baseline to final visit (Day 28) in duration of initial period of undisturbed sleep, median [3]: 46 min
Change from baseline to final visit (Day 28) in duration of initial period of undisturbed sleep, mean (25 ug, all females): 113 min
Change from baseline to final visit (Day 28) in duration of initial period of undisturbed sleep, median (25 ug, all females): 95 min
Change from baseline to final visit (Day 28) in duration of initial period of undisturbed sleep, mean (25 ug, all groups): 83 min
Change from baseline to final visit (Day 28) in duration of initial period of undisturbed sleep, median (25 ug, all groups): 62 min
Change from baseline to final visit (Day 28) in duration of initial period of undisturbed sleep, mean [4]: 57 min
Change from baseline to final visit (Day 28) in duration of initial period of undisturbed sleep, median [4]: 54 min
Change from baseline to final visit (Day 28) in duration of initial period of undisturbed sleep, mean (25 ug, all males): 61 min
Change from baseline to final visit (Day 28) in duration of initial period of undisturbed sleep, median (25 ug, all males): 55 min
median increase in initial period of sleep (25 μg): approximately 1 hour
Change from baseline to final visit (Day 28) in duration of initial period of undisturbed sleep, mean [5]: 122 min
Change from baseline to final visit (Day 28) in duration of initial period of undisturbed sleep, median [5]: 96 min
Change from baseline to final visit (Day 28) in duration of initial period of undisturbed sleep, mean [6]: 131 min
Change from baseline to final visit (Day 28) in duration of initial period of undisturbed sleep, median [6]: 113 min
Change from baseline to final visit (Day 28) in duration of initial period of undisturbed sleep, mean (50 ug, all females): 98 min
Change from baseline to final visit (Day 28) in duration of initial period of undisturbed sleep, median (50 ug, all females): 70 min
Change from baseline to final visit (Day 28) in duration of initial period of undisturbed sleep, mean (50 ug, all groups): 85 min
Change from baseline to final visit (Day 28) in duration of initial period of undisturbed sleep, median (50 ug, all groups): 63 min
Change from baseline to final visit (Day 28) in duration of initial period of undisturbed sleep, mean [7]: 64 min
Change from baseline to final visit (Day 28) in duration of initial period of undisturbed sleep, median [7]: 59 min
Change from baseline to final visit (Day 28) in duration of initial period of undisturbed sleep, mean (50 ug, all males): 72 min
Change from baseline to final visit (Day 28) in duration of initial period of undisturbed sleep, median (50 ug, all males): 55 min
median increase in initial period of sleep (50 μg): approximately 1 hour
Change from baseline to final visit (Day 28) in duration of initial period of undisturbed sleep, mean [8]: 83 min
Change from baseline to final visit (Day 28) in duration of initial period of undisturbed sleep, median [8]: 63 min
Change from baseline to final visit (Day 28) in duration of initial period of undisturbed sleep, mean [9]: 42 min
Change from baseline to final visit (Day 28) in duration of initial period of undisturbed sleep, median [9]: 30 min
Change from baseline to final visit (Day 28) in duration of initial period of undisturbed sleep, mean (100 ug, all females): 114 min
Change from baseline to final visit (Day 28) in duration of initial period of undisturbed sleep, median (100 ug, all females): 93 min
Change from baseline to final visit (Day 28) in duration of initial period of undisturbed sleep, mean (100 ug, all groups): 107 min
Change from baseline to final visit (Day 28) in duration of initial period of undisturbed sleep, median (100 ug, all groups): 96 min
Change from baseline to final visit (Day 28) in duration of initial period of undisturbed sleep, mean [10]: 108 min
Change from baseline to final visit (Day 28) in duration of initial period of undisturbed sleep, median [10]: 116 min
Change from baseline to final visit (Day 28) in duration of initial period of undisturbed sleep, mean (100 ug, all males): 100 min
Change from baseline to final visit (Day 28) in duration of initial period of undisturbed sleep, median (100 ug, all males): 101 min
Change from baseline to final visit (Day 28) in duration of initial period of undisturbed sleep, mean [11]: 108 min
Change from baseline to final visit (Day 28) in duration of initial period of undisturbed sleep, median [11]: 89 min
Change from baseline to final visit (Day 28) in duration of initial period of undisturbed sleep, mean [12]: 81 min
Change from baseline to final visit (Day 28) in duration of initial period of undisturbed sleep, median [12]: 70 min
